Results from patent US12461089B2, “Olfactory receptor involved in the perception of musk fragrance and the use thereof” (ChemoSensoryX Biosciences SA, priority 2017, dated 2025).
Substitutions are numbered along the chain they refer to. Read-outs that look alike come from different tables or passages of the source.

Experiments:
Type in all cases: cell-based
[1] = target: T1, OR5A2_variant 1 (Homo sapiens, UniProt Q8NGI9); assay: Luciferase reporter concentration-response analysis on OR5A2_variant 1; conditions: for activation of OR5A2 (OR5A2_variant 1), concentration-response: CRE-luciferase, semi-logarithmic serial dilutions, empty vector pEFIBRHO as control
T1 construct: expressed in transfected cells; host or cells: HEK293T-RTP1A1/RTP2
T1 sequence (Q8NGI9 1-324): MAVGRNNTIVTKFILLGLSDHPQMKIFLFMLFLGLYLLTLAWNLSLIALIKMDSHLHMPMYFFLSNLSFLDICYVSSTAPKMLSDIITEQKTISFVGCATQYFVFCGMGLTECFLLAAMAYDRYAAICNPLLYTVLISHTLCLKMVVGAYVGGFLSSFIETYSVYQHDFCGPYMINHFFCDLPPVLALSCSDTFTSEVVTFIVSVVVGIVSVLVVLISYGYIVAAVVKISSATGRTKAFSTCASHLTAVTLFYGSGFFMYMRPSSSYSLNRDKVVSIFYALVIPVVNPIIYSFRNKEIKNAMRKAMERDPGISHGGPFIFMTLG
Experimental: (§1) HEK293T-RTP1A1/RTP2 cells were maintained in minimal essential medium (EMEM, Lonza) containing 10% fetal bovine serum (M10). These cells were generated by transfecting HEK293T with an expression vector containing the sequences of the chaperone proteins RTP1A1 and RTP2 and a resistance gene to puromycin, using Lipofectamine 2000.
(§2) Odorant molecules were diluted at a concentration of 1 mole/liter (M) into dimethyl sulfoxide (DMSO) to generate stock solutions.
(§3) For concentration-response analysis, serial dilutions of the tested molecules were prepared from stock solutions in EMEM plated into 96-well plates.
(§4) For the initial deorphanisation screening and dose-response analysis, a Luciferase-based gene reporter assay (Promega, Leiden, The Nederlands) was used. Briefly, cells were platted on Poly-D-lysine-coated 96-well and transfected with a plasmid containing the CRE-luciferase and a plasmid containing the olfactory receptor. Sixteen hours after transfection, the culture medium was replaced by serum-free EMEM containing the tested compounds at a determined concentration. After four hours of incubation at 37° C. degree, cells were lysed and processed for luminescence measurement. Luminescene emission was recorded. Results were expressed as luciferase activity (Relative […] Unit (RLU)) or as percentage of the response induced by 10 μM of the adenylate cyclase activator Forskolin. An empty plasmid is used as negative control.
(§5) 35 musk compounds from the four structurally different chemical groups previously described were tested in concentration-response analyses (Table 2). In each experiment, an empty vector was used as negative control (pEFIBRHO). […] Full results including the calculated EC50 are given in Table 2; “non active” represent negative experiments, no activation after testing.

[2] = target: T2, OR5AN1 (Homo sapiens, UniProt Q8NGI8, E89G); assay: Luciferase reporter concentration-response analysis on OR5AN1; conditions: concentration-response analysis, luciferase reporter; values given as negative (log) numbers; Non Active = no activation after testing; read-out: calculated EC50, OR5AN1 (converted)
T2 construct: expressed in transfected cells; host or cells: HEK293T-RTP1A1/RTP2
T2 sequence (Q8NGI8 1-311 E89G): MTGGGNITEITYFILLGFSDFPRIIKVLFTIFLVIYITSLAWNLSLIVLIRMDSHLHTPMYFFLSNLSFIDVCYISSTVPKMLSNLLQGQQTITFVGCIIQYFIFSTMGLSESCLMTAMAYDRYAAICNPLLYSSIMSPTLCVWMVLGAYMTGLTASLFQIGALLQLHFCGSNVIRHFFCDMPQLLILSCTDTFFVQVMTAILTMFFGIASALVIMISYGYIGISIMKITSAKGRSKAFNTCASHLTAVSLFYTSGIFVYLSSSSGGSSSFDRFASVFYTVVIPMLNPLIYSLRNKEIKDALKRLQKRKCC
Experimental: as §1, with “2000. The recombinant cell population, used in these experiments, was selected by adding 10 μg/ml of puromycin into the culture medium and subsequently subcloned (WO 2014/191047 A1).” for “2000.”
as §2, §3, §4
In these analyses we also included ORs previously described as musk-specific receptors OR5AN1 (SEQ ID n° 7) (WO 2015/020158 A1, Shirasu et al. 2014 Neuron 81, 165-78, Sato-Akuhara N et al. 2016 J Neurosci. 36(16), 4482-91) and OR11A1 (SEQ ID n° 8) (WO 2016/201152 A1). […] Therefore, OR5A1 was included in the analyses. 35 musk compounds from the four structurally different chemical groups previously described were tested in concentration-response analyses (Table 2). In each experiment, an empty vector was used as negative control (pEFIBRHO). […] Full results including the calculated EC50 are given in Table 2; “non active” represent negative experiments, no activation after testing. […]

[3] = target: T1, OR5A2_variant 1; assay: Luciferase reporter deorphanisation screening of odorant libraries (891 compounds) on OR5A2; conditions: HEK293T-RTP1A1/RTP2 cells; each compound at 1 mM, 316 μM, 100 μM; hit = luciferase activity >= median + 2 standard deviations
Experimental: as §1, §2
For screening experiments, stock solutions of odorant molecules were diluted in EMEM disposed in 96-well plates.
as §4

[4] = target: T3, OR2A5 (Homo sapiens, UniProt Q96R48, A202S/A255T/I126V); assay: Luciferase reporter concentration-response analysis on OR2A5; conditions: CRE-luciferase
T3 construct: expressed in transfected cells; host or cells: HEK293T-RTP1A1/RTP2
T3 sequence (Q96R48 1-311 I126V/A202S/A255T): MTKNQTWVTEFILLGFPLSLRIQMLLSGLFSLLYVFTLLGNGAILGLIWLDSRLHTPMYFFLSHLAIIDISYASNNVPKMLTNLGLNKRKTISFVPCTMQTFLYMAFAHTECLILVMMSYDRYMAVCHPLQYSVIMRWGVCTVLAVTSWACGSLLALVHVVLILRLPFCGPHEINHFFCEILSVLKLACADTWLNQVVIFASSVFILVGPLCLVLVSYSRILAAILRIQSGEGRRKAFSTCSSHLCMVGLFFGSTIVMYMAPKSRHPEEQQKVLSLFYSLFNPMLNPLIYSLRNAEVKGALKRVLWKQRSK
Experimental: as §1, with “2000. The recombinant cell population, used in these experiments, was selected by adding 10 μg/ml of puromycin into the culture medium and subsequently subcloned (WO 2014/191047 A1).” for “2000.”
as §2, §3, §4
In 1998, Krautwurst and collaborators have provided a model system for the study of ligand specificity and structure-function relationships for olfactory receptors (Krautwurst et al., 1998 Cell 95, 917-26). […] Based on their publication, a chimeric OR5A2_variant 1 olfactory receptor was created containing the TM2-TM7 amino acid sequence of OR5A2_variant 1 flanked by the N-teminal and C-terminal sequence of the olfactory receptor OR2A5 (cf. SEQ ID NO: 12). This chimeric OR5A2_variant 1 receptor shared 86 percent identity with the native OR5A2_variant 1 receptor (FIG. 6A and SEQ ID NO: 10).
(§6) To test if the amino acids substitution could impact the musk sensitivity, and specificity and to validate the Krautwurst's model, luciferase assays were performed as described previously after transfection of the chimeric OR5A2_variant 1. Cells were treated with semi-logarithmic serial dilutions of musk compounds from the four structurally different groups described earlier.

[5] = target: T4, chimeric OR5A2_variant 1 (Homo sapiens, UniProt Q8NGI9, F293L/H55R/I289L/M58T); assay: Luciferase reporter concentration-response analysis on chimeric OR5A2_variant 1; conditions: CRE-luciferase; empty vector pEFIBRHO as control
T4 construct: expressed in transfected cells; host or cells: HEK293T-RTP1A1/RTP2
T4 sequence (Q8NGI9 with tags, fused parts or gaps H55R/M58T/I289L/F293L): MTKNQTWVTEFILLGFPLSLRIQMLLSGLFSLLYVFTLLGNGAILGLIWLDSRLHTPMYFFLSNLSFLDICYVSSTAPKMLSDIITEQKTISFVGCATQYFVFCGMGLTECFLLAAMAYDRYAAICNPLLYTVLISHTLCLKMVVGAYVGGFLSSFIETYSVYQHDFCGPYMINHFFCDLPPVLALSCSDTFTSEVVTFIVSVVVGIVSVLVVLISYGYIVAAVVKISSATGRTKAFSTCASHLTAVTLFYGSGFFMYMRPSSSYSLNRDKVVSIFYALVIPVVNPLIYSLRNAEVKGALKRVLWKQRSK
Experimental: as §1, §2, §3, §4, §6
In each experiment, an empty vector was used as negative control (pEFIBRHO).

[6] = target: T5, OR5A2_variant 2 (Homo sapiens, UniProt Q8NGI9, P172L); assay: Luciferase reporter concentration-response analysis on haplotype OR5A2_variant 2 (P172L); conditions: CRE-luciferase; empty vector pEFIBRHO as control
T5 construct: (P172L, OR5A2_variant 2); expressed in transfected cells; host or cells: HEK293T-RTP1A1/RTP2
T5 sequence (Q8NGI9 1-324 P172L): T1 sequence (Q8NGI9 1-324) with P172L
Experimental: as §1, §2, §3, §4
OR genes are highly variable, with many alleles resulting in differences in smell perception from person to person. These differences can be attributed to genetic variations like, for example, nucleotide polymorphisms. […] Amino acids alignment of the 2 haplotypes are represented in FIG. 4.
To test if the substitution could impact the musk sensitivity, luciferase assays were performed as described previously after transfection of both OR5A2 variants. Cells were treated with semi-logarithmic serial dilutions of musk compounds from the four structurally different groups described earlier. In each experiment, an empty vector was used as negative control (pEFIBRHO).

[7] = target: T6, OR11A1 (Homo sapiens, UniProt Q9GZK7); assay: Luciferase reporter concentration-response analysis on OR11A1; conditions: concentration-response analysis, luciferase reporter; values given as negative (log) numbers; Non Active = no activation after testing; read-out: calculated EC50, OR11A1 (converted)
T6 construct: expressed in transfected cells; host or cells: HEK293T-RTP1A1/RTP2
T6 sequence (Q9GZK7 1-315): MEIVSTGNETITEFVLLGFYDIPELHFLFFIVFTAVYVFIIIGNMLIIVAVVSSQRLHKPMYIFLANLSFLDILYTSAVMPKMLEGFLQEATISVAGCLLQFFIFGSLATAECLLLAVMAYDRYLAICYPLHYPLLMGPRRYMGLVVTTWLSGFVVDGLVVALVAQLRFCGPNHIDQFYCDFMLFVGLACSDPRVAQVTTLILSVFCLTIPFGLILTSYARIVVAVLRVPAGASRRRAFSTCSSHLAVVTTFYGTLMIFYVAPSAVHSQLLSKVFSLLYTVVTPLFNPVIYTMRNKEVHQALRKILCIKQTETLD
Experimental: as §1, §2, §3, §4, §5
These compounds were tested in concentration-response analysis in luciferase assays, as described previously. In each experiment, an empty vector was used as negative control (pEFIBRHO).

[8] = concentration-response analysis, luciferase reporter, values given as negative (log) numbers, read-out: calculated EC50, OR5A2 (converted)

SMILES | EC50 [1, 8] | EC50 [2] | response of the OR of the invention (luciferase activity, hit) in library screening [3] | EC50 [1] | activation of OR5A2 (OR5A2_variant 1), concentration-response [1] | activation of OR2A5, concentration-response [4] | activation of chimeric OR5A2_variant 1, concentration-response [5] | activation of OR5A2_variant 2 (P172L), concentration-response [6] | EC50 [7]
O=C1CCCCCCCCCCCC(=O)OCCO1 [Ethylene Brassylate] | 49 µM | 66.1 µM | respond specifically and exclusively |  |  |  |  |  | 
C[C@H]1CC(C)(C)C2=C(C[C@@]3(C)O[C@H]3C2)C1(C)C [malaxone] |  |  | respond specifically and exclusively |  |  |  |  |  | 
CC(OC(C)(C)COC(=O)C1CC1)C1CCCC(C)(C)C1 (centres unmarked) [Serenolide] |  |  | respond specifically and exclusively | 21.9 µM | shows dose response curves | but not the OR2A5 | shows dose response curves | not activated | 
CC1C(C)(C)C2=C(C(=O)CCC2)C1(C)C (centres unmarked) [Cashmeran] | 17.8 µM |  |  |  | shows dose response curves | but not the OR2A5 | shows dose response curves | not activated | 21.4 µM
CC1COCc2cc3c(cc21)C(C)(C)C(C)C3(C)C (centres unmarked) [Galaxolide®] |  |  |  |  | shows dose response curves | but not the OR2A5 | shows dose response curves | not activated | 
